Assay results from paper PMC2783803 (Journal of medicinal chemistry, 2009).

Tests used:
[1] = tested on: sweet and umami (MSG) taste; experiment: Psychophysical self-experimentation, taste inhibition in vivo; design: species or system human; conditions: self-experimentation by one author; data not shown
[2] = tested on: PPAR-alpha; conditions: read-out: EC50 for activating PPAR-alpha; cited from earlier work
[3] = target: T1, human T1R2+T1R3 receptor (Homo sapiens, UniProt Q7RTX0); experiment: Heterologous calcium mobilization assay, human sweet receptor in HEK293 cells; assay type: cell-based
T1 sequence (Q7RTX0 21-852): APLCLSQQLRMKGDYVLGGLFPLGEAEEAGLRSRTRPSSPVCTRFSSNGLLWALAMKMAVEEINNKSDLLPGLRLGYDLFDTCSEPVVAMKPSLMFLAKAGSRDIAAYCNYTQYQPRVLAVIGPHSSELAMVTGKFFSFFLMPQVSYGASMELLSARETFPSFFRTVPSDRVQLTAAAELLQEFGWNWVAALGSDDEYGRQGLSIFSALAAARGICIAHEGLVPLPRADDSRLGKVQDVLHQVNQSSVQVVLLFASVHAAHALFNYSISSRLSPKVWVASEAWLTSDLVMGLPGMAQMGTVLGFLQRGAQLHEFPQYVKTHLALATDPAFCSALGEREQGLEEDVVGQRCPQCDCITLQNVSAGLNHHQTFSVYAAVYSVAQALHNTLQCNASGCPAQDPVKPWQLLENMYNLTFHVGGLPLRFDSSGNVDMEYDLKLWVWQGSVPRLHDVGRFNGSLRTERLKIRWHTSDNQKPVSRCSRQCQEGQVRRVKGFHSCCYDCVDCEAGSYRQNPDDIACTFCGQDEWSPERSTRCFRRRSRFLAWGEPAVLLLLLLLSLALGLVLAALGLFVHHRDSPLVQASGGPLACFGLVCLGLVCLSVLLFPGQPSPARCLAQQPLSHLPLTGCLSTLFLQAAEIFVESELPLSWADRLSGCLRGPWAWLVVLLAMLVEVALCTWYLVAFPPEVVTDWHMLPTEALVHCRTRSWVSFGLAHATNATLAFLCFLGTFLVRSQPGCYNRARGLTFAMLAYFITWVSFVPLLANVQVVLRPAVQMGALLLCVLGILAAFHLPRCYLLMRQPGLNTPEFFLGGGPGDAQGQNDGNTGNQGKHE
T1 sequence (Q8TE23 20-839 partner): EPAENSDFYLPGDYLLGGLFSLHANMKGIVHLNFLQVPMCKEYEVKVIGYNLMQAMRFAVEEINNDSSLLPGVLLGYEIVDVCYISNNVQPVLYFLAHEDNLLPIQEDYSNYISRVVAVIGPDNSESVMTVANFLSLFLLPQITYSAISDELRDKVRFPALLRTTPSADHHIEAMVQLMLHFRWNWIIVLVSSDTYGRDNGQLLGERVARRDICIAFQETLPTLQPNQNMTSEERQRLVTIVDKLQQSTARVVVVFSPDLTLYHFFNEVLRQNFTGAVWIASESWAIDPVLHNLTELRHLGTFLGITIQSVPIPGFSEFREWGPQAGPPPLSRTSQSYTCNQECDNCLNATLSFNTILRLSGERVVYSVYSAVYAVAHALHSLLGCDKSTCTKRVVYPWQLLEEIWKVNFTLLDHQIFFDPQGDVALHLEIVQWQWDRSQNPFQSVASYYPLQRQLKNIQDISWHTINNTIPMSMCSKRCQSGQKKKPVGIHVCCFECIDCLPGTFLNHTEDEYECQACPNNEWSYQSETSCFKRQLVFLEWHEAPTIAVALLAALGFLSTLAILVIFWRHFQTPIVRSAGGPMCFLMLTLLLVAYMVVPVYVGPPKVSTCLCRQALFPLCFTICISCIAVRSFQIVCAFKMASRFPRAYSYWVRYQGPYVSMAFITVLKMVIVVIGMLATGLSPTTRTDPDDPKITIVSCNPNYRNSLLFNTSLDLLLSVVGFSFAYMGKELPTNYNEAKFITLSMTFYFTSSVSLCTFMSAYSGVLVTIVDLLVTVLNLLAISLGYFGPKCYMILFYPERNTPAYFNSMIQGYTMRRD

[4] = tested on: mouse sweet receptor (mT1R2+mT1R3); experiment: Heterologous calcium mobilization assay, mouse sweet receptor; assay type: cell-based; conditions: activated by 2.5mM sucralose; inhibitor at ~5-times IC50

**Q.** With `CC(C)(Oc1ccc(Cl)cc1)C(=O)O` [Clofibric acid, 2-(4-chlorophenoxy)-2-methylpropanoic acid] as the molecule, how does the “inhibition of sweet taste in vivo” value [1] read?
**A.** The value was “potently inhibited”.

**Q.** And the “inhibition of umami (MSG) taste in vivo” value [1]?
**A.** The value was “potently inhibited”.

**Q.** And the EC50 [2]?
**A.** Its EC50 is 50 to 55 µM.

**Q.** For `O=C(O)COc1ccc(Cl)cc1Cl` [2,4D, (2,4-dichlorophenoxy)acetic acid], which IC50 [3] is on record?
**A.** Its IC50 is 70 µM.

**Q.** With `COc1ccc(OC(C)C(=O)O)cc1` (centres unmarked) [Lactisole, 2-(4-methoxyphenoxy) propanoic acid] as the molecule, how does the “effect on the mouse sweet receptor” value [4] read?
**A.** Its value is “no effect”.
